Laboratory results taken from patent publication US8148386B2, “Agent for the prevention and treatment of prostatic hyperplasia comprising pyrazolopyrimidinone compound” (priority 2006, dated 2012).
Read-outs that look alike come from different tables or passages of the source. Each block holds one compound with its values, some of them ahead of it.

Experiments:
[1] = Interrupt rate of administration due to side effects of PDE-5 inhibitors after clinical trials on impotence
[2] = cited from earlier work
PDE-11 = PDE-11 (Homo sapiens, UniProt Q9HCR9)
PDE-5 = PDE-5 (Homo sapiens, UniProt O76074); assay: Inhibition of PDE-5 activity; assay type: biochemical
[3] = Phase 1 clinical trial: safety, tolerability and pharmacokinetics in healthy adults; assay type: in vivo, human
[4] = Xenobiotica 2004 34:973-982; cited from earlier work
BPH rat models [5] = assay: Single administration: intraurethral pressure in BPH rat models; assay type: in vivo, Wistar rats
Protocol: In the present experiment, thirty male white […] rats of 300 to 350 g were randomly divided into five control groups of six rats. The first group (1') was left untreated as a normal group and the other groups were those whose testicles were resected. From a couple of days after the operations, each rat in the third to fifth groups was given a daily hypodermic injection of 1 mg of testosterone and 0.01 mg of 17 beta-estradiol for 8 weeks. After 8 weeks, all rats were anesthetized by an intraperitoneal injection with 50 mg/kg of pentobarbital, and intubated with polyethylene needles. The second group (2') was those whose testicles were resected only; the third group (3') was treated with a solvent; the fourth group (4') was treated with 0.3 mg/kg of the pyrazolopyrimidinone compound of formula 1; and the fifth group (5') was treated with 1 mg/kg of the pyrazolopyrimidinone compound of formula 1, the fourth and fifth groups being administrated via intravenous injections. […] In the measurement, 5, 10 and 20 Hz of electrostimulations were applied to hypogastric nerves using a stainless steel anode electrode, and the measured results were shown in FIGS. 5 to 8.

[6] = Pharmacokinetic experiment in the human body (BPH patients); assay type: in vivo
Protocol: The test was carried out in a double-blind manner and the participants were administrated with the test drugs with 240 ml of water at 8:00 to 9:00 am of the test day. After administration, all participants were fasted for four hours. After the fast, they were served a lunch of standard diet and provided a dinner of standard diet nine hours after the lunch. Blood collections were carried out before administrating the test drugs and 0.5, 1, 1.5, 2, 2.5, 3, 4, 5, 6, 8, 12 and 24 hours after the administration on the test day. From the bloods collected, blood plasmas were separated and analyzed using high performance liquid chromatography (HPLC). […] of 0.1 M sodium carbonate and 1.0 ml of ethylether were added to each 0.5 ml of blood plasma and mixed well for one minute. Then, the resultant solutions were centrifuged at […] for three minutes. Subsequently, the supernatants were collected, from which organic solvents were volatilized using a Speed-Vac, to which […] of mobile phases were added, stirred and injected into the high performance liquid chromatography (HPLC).

BPH rat models [7] = assay: Repeated administration: intraurethral pressure in BPH rat models; assay type: in vivo, Wistar rats; conditions: oral 1, 5 and 20 mg/kg for 8 weeks; 5, 10 and 20 Hz electrostimulation of hypogastric nerves; FIGS. 1 to 4
Protocol: In the present experiment, thirty-six male white Wistar rats of 300 to 350 g were randomly divided into six control groups of six rats. The first group (1) was left untreated as a normal control group and the other groups were those whose testicles were […]. From a couple of days after the operations, each rat in the third to sixth groups was given a daily hypodermic injection of 1 mg of testosterone and 0.01 mg of 17 beta-estradiol for 8 weeks. The second group (2) was those whose testicles were […] only; the third group (3) was treated with a solvent; the fourth group (4) was treated with 1 mg/kg of the pyrazolopyrimidinone compound of formula 1; the fifth group (5) was treated with 5 mg/kg of the pyrazolopyrimidinone compound of formula 1; and the sixth group (6) was treated with 20 mg/kg of the pyrazolopyrimidinone compound of formula 1, the fourth to sixth groups being orally administrated for 8 weeks. After 8 weeks, all rats were anesthetized by an intraperitoneal injection with 50 mg/kg of pentobarbital, and intubated with polyethylene needles. […] In the measurement, 5, 10 and 20 Hz of electrostimulations were applied to hypogastric nerves using a stainless steel anode electrode, and the measured results were shown in FIGS. 1 to 4.

[8] = Tissue distribution in urogenital organs; conditions: male, Sprague-Dawley, rat, 30 mg/kg
Protocol: Male white Sprague-Dawley (SD) rats were randomly assigned by four to five rats at different time points. […] At different time points of 30 minutes, 2 hours and 6 hours after administration, bloods were collected through abdominal aortas and urogenital organs were extracted. Phosphate buffer of pH 7.4 was added to the extracted organs to be homogenized. […] Analyses were performed using a Hichrom HIRPB column (150×4.6 mm, particle size: 5 μm) at fixed wavelength of 292 nm with a mobile phase mixed with 20 nM of KH2PO4 and acetonitrile in a volume ratio of 70:30. The mobile phase flow rate was 1 ml/min. and the amount of sample introduced was 100 ml.

Sequence of PDE-11 (Q9HCR9 whole entry): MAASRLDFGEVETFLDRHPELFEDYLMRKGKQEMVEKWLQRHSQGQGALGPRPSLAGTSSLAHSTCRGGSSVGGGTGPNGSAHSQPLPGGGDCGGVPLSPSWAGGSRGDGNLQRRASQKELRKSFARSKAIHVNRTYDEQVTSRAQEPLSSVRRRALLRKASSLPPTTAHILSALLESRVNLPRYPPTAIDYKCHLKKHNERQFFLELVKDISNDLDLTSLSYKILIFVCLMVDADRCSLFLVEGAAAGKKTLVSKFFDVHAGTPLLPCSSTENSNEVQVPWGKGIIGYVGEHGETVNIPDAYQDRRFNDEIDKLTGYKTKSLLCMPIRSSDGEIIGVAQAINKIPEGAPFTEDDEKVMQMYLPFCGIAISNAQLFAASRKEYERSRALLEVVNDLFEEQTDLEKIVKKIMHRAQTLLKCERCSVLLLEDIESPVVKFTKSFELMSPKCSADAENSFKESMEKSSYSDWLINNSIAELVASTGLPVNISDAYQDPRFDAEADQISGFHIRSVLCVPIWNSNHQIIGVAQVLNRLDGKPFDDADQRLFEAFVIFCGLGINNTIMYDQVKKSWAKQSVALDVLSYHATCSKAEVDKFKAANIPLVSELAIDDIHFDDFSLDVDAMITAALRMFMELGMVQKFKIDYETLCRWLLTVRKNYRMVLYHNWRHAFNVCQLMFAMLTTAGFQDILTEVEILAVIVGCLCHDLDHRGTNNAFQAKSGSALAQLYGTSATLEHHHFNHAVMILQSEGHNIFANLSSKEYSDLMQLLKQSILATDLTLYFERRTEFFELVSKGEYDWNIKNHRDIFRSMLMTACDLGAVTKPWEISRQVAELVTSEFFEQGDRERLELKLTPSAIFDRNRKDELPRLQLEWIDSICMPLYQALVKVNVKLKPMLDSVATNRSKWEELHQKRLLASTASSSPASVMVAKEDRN

SMILES: CN1CC(=O)N2[C@H](c3ccc4c(c3)OCO4)c3[nH]c4ccccc4c3C[C@@H]2C1=O [Cialis]
Interrupt rate (%) of administration due to side effects ([1]; 5 mg): 0.7%
Interrupt rate (%) of administration due to side effects ([1]; 10 mg): 1.6%
Interrupt rate (%) of administration due to side effects ([1]; 20 mg): 3.1%
IPSS change ([2]; 5 mg once a day for 6 weeks): 2.8 points
IPSS change ([2]; dose increased to 20 mg, additional 6 weeks): 3.8 points
interrupt rate of administration due to the side effects ([2]; phase 2 clinical trial): 3.6%

SMILES: CCCOc1ccc(S(=O)(=O)NCCC2CCCN2C)cc1-c1nc2c(CCC)nn(C)c2c(=O)[nH]1 (stereo not shown) [Compound of formula 1, 5-[2-propyloxy-5-(1-methyl-2-pyrrolidinylethylamidosulfonyl)phenyl]-1-methyl-propyl-1,6-dihydro-7H-pyrazolo(4,3-d)pyrimidin-7-one]
inhibition of the activity of PDE-11 (PDE-11): does not have an inhibiting power
inhibitive activity for PDE-5 (PDE-5): strong inhibitive activity
selectivity for PDE-5 (PDE-5): excellent selectivity
Interrupt rate (%) of administration due to side effects ([1]; 100 mg): 0.0%
Interrupt rate (%) of administration due to side effects ([1]; 200 mg): 1.2%
half-life ([3]; human, in vivo, oral, regardless of the doses administrated, healthy adults): 9 to 15 h
Tmax ([3]; human, in vivo, after oral administration, healthy adults): 1 to 2 h
abnormal responses to the test substance ([3]; phase 1 clinical trial): no serious abnormal responses
accumulation of drug ([3]; repeated administration once a day for 7 days): not observed
residual rate after liver metabolism [4]: 93.0%
intraurethral pressure, significance of decrease (BPH rat models [5]; 0.3 mg/kg intravenous, 5 and 10 Hz): did not show significant decreases
intraurethral pressure, significance of change (BPH rat models [5]; 0.3 mg/kg intravenous, 20 Hz): significant increase
prevention of increases in the intraurethral pressure in comparison with sildenafil (BPH rat models [5]; single administration, sildenafil of same volume): excellent effects
increases in the intraurethral pressure (BPH rat models [5]; single intravenous injection 0.3 and 1 mg/kg, FIGS. 5 to 8): prevented dose-dependently
half-life ([6]; human, in vivo, 100 mg): 12.1 ± 3.2 h
half-life ([6]; male, human, in vivo): 9 to 15 h
intraurethral pressures (IUP) (BPH rat models [7]): decreased dose-dependently and significantly

SMILES: CCCc1nc(C)c2c(=O)[nH]c(-c3cc(S(=O)(=O)N4CCN(CC)CC4)ccc3OCC)nn12 [Levitra]
Interrupt rate (%) of administration due to side effects ([1]; 5 mg): 2.7%
Interrupt rate (%) of administration due to side effects ([1]; 10 mg): 2.9%
Interrupt rate (%) of administration due to side effects ([1]; 20 mg): 6.6%

concentration at 30 min [8]: 319 ng/mL
concentration at 120 min [8]: 633 ng/mL
concentration at 360 min [8]: 259 ng/mL
half-life ([6]; 50 mg, BPH patients, plasma): 4.1 ± 1.1 time
half-life ([6]; male, human, plasma, oral, summary of Table 3, read-out: half-life): 3 to 5 h
SMILES: CCCc1nn(C)c2c(=O)[nH]c(-c3cc(S(=O)(=O)N4CCN(C)CC4)ccc3OCC)nc12 [Sildenafil]
Interrupt rate (%) of administration due to side effects ([1]; 25 mg): 0.0%
Interrupt rate (%) of administration due to side effects ([1]; 50 mg): 0.7%
Interrupt rate (%) of administration due to side effects ([1]; 100 mg): 3.9%
